Laboratory results: article PMC9814779, “A triple farnesoid X receptor and peroxisome proliferator-activated receptor α/δ activator reverses hepatic fibrosis in diet-induced NASH in mice” (Communications Chemistry, 2020)

Assays:
[1] = test system: DIO NASH; conditions: cited from earlier work
[2] = test system: diet-induced mouse model of NASH; conditions: cited from earlier work
[3] = Microsomal stability assay; type: in vitro ADME, rat
[4] = 10 μM, rat liver microsomes, 37 °C, 41 n = 3, 7-EC n = 1

In the case of `CC[C@H]1[C@@H](O)[C@@H]2[C@H](CC[C@]3(C)[C@@H]([C@H](C)CCC(=O)O)CC[C@@H]23)[C@@]2(C)CC[C@@H](O)C[C@@H]12` [OCA, 6α-ethylchenodeoxycholic acid, reference compound], the “effects in DIO NASH” value [1] is given as “pronounced anti-steatotic activity and slight anti-fibrotic effects”, the anti-steatotic effect ([2]; OCA 30 mg/kg, OCA/elafibranor 30 mg/kg + 10 mg/kg, elafibranor 10 mg/kg) is given as “marked reductions in steatosis” and the anti-fibrotic activity ([2]; equivalent, previously reported study) is given as “only weak anti-fibrotic activity compared to vehicle”.
With `CC(C)(C)c1ccc(C(=O)Nc2cccc(CCC(=O)O)c2)c(NC(=O)c2ccc(-c3ccco3)cc2)c1` [compound 41, 3-(3-[4-{tert-Butyl}-2-{4-(2-furyl)}benzamido]phenyl)propanoic acid] the “percent of remaining compound, 15 min” value [3, 4] was 95 ± 3%, the “percent of remaining compound, 30 min” value [3, 4] was 95 ± 2% and the “percent of remaining compound, 60 min” value [3, 4] was 93 ± 2%. The “stability against microsomal degradation” value ([3]; in words) was “very high stability against microsomal degradation”.
